This passage reports mutagenic call and call results from PubChem BioAssay AID1259408 (Genetic Toxicology Data Bank (GENE-TOX), 2018).

Calls of active or inactive are those of the source. The rule behind the calls is not given here.

The test system of this data set is GENE-TOX genotoxicity assays, various organisms and cells. The data set is described as follows: GENE-TOX mutagenicity studies. The conditions noted are these: for call: Assay Type: In vivo carcinogenicity studies.
Where [1] appears, read: Species/Cell Type: Salmonella typhimurium (one or more of the five standard strains: TA98, TA100, TA1535, TA1537, and TA1538), Assay Type: Histidine reverse gene mutation, Ames assay, Assay Code: SALT, Evaluation Type: Evaluation A (Pre-1980).
The mark [2] stands for this setting: Species/Cell Type: Nonhuman, Assay Code: CCGT, Evaluation Type: Evaluation A (Pre-1980).
The mark [3] stands for this setting: Species/Cell Type: Drosophila melanogaster, Assay Type: Sex-linked recessive lethal gene mutation, Assay Code: SRLT, Evaluation Type: Evaluation A (Pre-1980).
Where [4] appears, read: Species/Cell Type: Fischer rat embryo (RLV/1706) cells, Assay Type: Cell transformation, viral enhanced, Assay Code: CTR+, Evaluation Type: Evaluation A (Pre-1980).
Setting [5] is: Species/Cell Type: Neurospora crassa, Assay Type: Forward gene mutation, Assay Code: NEF+, Evaluation Type: Evaluation A (Pre-1980).
The mark [6] stands for this setting: Species/Cell Type: Nonhuman, Assay Code: CCG+, Evaluation Type: Evaluation A (Pre-1980).

Take `[O-][Br+2]([O-])O`: the mutagenic call (Species/Cell Type: Mammalian polychromatic erythrocytes, Assay Type: Micronucleus test, chromosome aberrations, Assay Code: MNT+, Evaluation Type: Evaluation B (Post-1980)) was “active; positive”.
Regarding `O=C(O)c1ccccc1N=Nc1c(O)c(S(=O)(=O)O)cc2cc(S(=O)(=O)O)ccc12`, under setting [1], the mutagenic call is “no conclusion”.
Consider `COc1nn(CSP(=S)(OC)OC)c(=O)s1`, for which, for the setting “Species/Cell Type: Nonhuman, Assay Type: Sister-chromatid exchange (SCE) in vitro, Assay Code: SC2+D*, Activation: With metabolic activation, Dose Response: With dose response, Evaluation Type: Evaluation B (Post-1980)”, the mutagenic call is “active; positive”.
As for `O=C1CN(/N=C/c2ccc([N+](=O)[O-])o2)C(=O)N1CO`, the mutagenic call (Species/Cell Type: Human, Sex: Male, Assay Type: Sperm morphology, Assay Code: SPHT, Evaluation Type: Evaluation A (Pre-1980)) was “no conclusion”.
With `O=C1C=Cc2ccc3c4c(ccc1c24)C(=O)c1ccccc1-3`, the mutagenic call by setting is: (Species/Cell Type: Chinese hamster lung (V79) cells, Assay Type: Forward gene mutation at the HPRT or ouabain locus, Assay Code: V79+, Evaluation Type: Evaluation A (Pre-1980)) “active; positive”; under setting [1], “no conclusion”. Moreover, the call under setting [2] is listed as “no conclusion”.
In the case of `Cc1ccc2cc3c(ccc4ccccc43)c3c2c1CC3`, the mutagenic call by setting is: (Species/Cell Type: Chinese hamster lung (V79) cells, Assay Type: Forward gene mutation at the HPRT or ouabain locus, Assay Code: V79+*, Activation: With metabolic activation, Evaluation Type: Evaluation A (Pre-1980)) “active; positive”; (Species/Cell Type: Chinese hamster lung (V79) cells, Assay Type: Forward gene mutation, host-mediated assay, Assay Code: HMG+, Evaluation Type: Evaluation A (Pre-1980)) “active; positive”; (Species/Cell Type: Chinese hamster ovary (CHO) cells, Assay Type: Forward gene mutation at the HPRT locus, Assay Code: CHO+*, Activation: With metabolic activation, Evaluation Type: Evaluation B (Post-1980)) “active; positive”; under setting [3], “no conclusion”; under setting [4], “active; positive”; (Species/Cell Type: Fischer rat embryo (SA7/RE) cells, Assay Type: Cell transformation, viral enhanced, Assay Code: CTA+, Evaluation Type: Evaluation A (Pre-1980)) “active; positive”. Moreover, the mutagenic call is “active; positive” (Species/Cell Type: Human diploid fibroblasts, Assay Type: Unscheduled DNA synthesis (UDS) in vitro, DNA effects, Assay Code: UDH+, Evaluation Type: Evaluation A (Pre-1980)); “active; positive” (Species/Cell Type: Human lymphocytes, Assay Type: Sister-chromatid exchange (SCE) in vitro, Assay Code: SCL+D, Dose Response: With dose response, Evaluation Type: Evaluation B (Post-1980)); “active; positive” (Species/Cell Type: Human, Assay Type: Sister-chromatid exchange (SCE) in vitro, Assay Code: SC1+D, Dose Response: With dose response, Evaluation Type: Evaluation B (Post-1980)); “no conclusion” (Species/Cell Type: Mammalian polychromatic erythrocytes, Assay Type: Micronucleus test, chromosome aberrations, Assay Code: MNTT, Evaluation Type: Evaluation A (Pre-1980)); “active; positive” (Species/Cell Type: Mouse (BALB/c-3T3) cells, Assay Type: Cell transformation, Assay Code: CTB+D, Dose Response: With dose response, Evaluation Type: Evaluation A (Pre-1980)); “active; positive” (Species/Cell Type: Mouse (C3H/10T1/2) cells, Assay Type: Cell transformation, Assay Code: CTH+D, Dose Response: With dose response, Evaluation Type: Evaluation A (Pre-1980)). Moreover, the mutagenic call is “active; positive” (Species/Cell Type: Mouse embryo (AKR/ME) cells, Assay Type: Cell transformation, Assay Code: CTK+, Evaluation Type: Evaluation A (Pre-1980)); “active; positive” (Species/Cell Type: Mouse prostate cells, Assay Type: Cell transformation, Assay Code: CTM+D, Dose Response: With dose response, Evaluation Type: Evaluation A (Pre-1980)); “active; positive” (Species/Cell Type: Mouse, Sex: Male, Assay Type: Sperm morphology, Assay Code: SPI+, Evaluation Type: Evaluation A (Pre-1980)); “active; positive” under setting [5]; “inactive; negative” (Species/Cell Type: Nonhuman, Assay Type: Chromosome aberrations in vitro, Assay Code: CY&-, Evaluation Type: Evaluation A (Pre-1980)); “active; positive” (Species/Cell Type: Nonhuman, Assay Type: Sister-chromatid exchange (SCE) in vitro, Assay Code: SC2+, Evaluation Type: Evaluation A (Pre-1980)). Moreover, the mutagenic call was “active; positive” (Species/Cell Type: Nonhuman, Assay Type: Sister-chromatid exchange (SCE) in vivo, Assay Code: SC3+D, Dose Response: With dose response, Evaluation Type: Evaluation A (Pre-1980)); “active; positive” (Species/Cell Type: Rat primary hepatocytes, Assay Type: Unscheduled DNA synthesis (UDS) in vitro, DNA effects, Assay Code: UDP+D, Dose Response: With dose response, Evaluation Type: Evaluation A (Pre-1980)); “active; positive” (Species/Cell Type: Salmonella typhimurium (one or more of the five standard strains: TA98, TA100, TA1535, TA1537, and TA1538), Assay Type: Histidine reverse gene mutation, Ames assay, Assay Code: SAL+*, Activation: With metabolic activation, Evaluation Type: Evaluation A (Pre-1980)); “inactive; negative” (Species/Cell Type: Salmonella typhimurium, Assay Type: Forward and reverse gene mutation, body fluid assay, Assay Code: BFU-, Evaluation Type: Evaluation A (Pre-1980)); “active; positive” (Species/Cell Type: Syrian hamster embryo (SA7/SHE) cells, Assay Type: Cell transformation, viral enhanced, Assay Code: CT7+, Evaluation Type: Evaluation A (Pre-1980)); “active; positive” (Species/Cell Type: Syrian hamster embryo (SHE) cells, Assay Type: Cell transformation, clonal assay, Assay Code: CTC+D, Dose Response: With dose response, Evaluation Type: Evaluation A (Pre-1980)). Also, for the setting “Species/Cell Type: Syrian hamster embryo (SHE) cells, Assay Type: Cell transformation, focus assay, Assay Code: CTF+, Evaluation Type: Evaluation A (Pre-1980)”, the mutagenic call is “active; positive”. Moreover, the call under setting [6] is “active; positive”.
In the case of `CC1C(C)N(N=O)C(C)C(C)N1N=O` (stereo not given), the mutagenic call under setting [1] was “no conclusion”.
Consider `CC(=O)Nc1ccc(CC(=O)c2ccccc2)cc1`, for which, under setting [1], the mutagenic call is on record as “no conclusion”.
Consider `ClC1(Cl)C2(Cl)C3(Cl)C4(Cl)C(Cl)(Cl)C5(Cl)C3(Cl)C1(Cl)C5(Cl)C24Cl` (stereo not given), for which the call under setting [6] was “active; positive”. In addition, the mutagenic call (Species/Cell Type: Rodents, Sex: Male, Assay Type: Dominant lethal test, Assay Code: DLT-, Evaluation Type: Evaluation A (Pre-1980)) was “inactive; negative”.
Regarding `NO`, the mutagenic call was “active; positive” (Species/Cell Type: Allium cepa, Assay Type: Chromosome aberrations, Assay Code: ALC+D, Dose Response: With dose response, Evaluation Type: Evaluation A (Pre-1980)); “inactive; negative” (Species/Cell Type: Arabidopsis species, Assay Type: Gene mutation, Assay Code: ARM-, Evaluation Type: Evaluation A (Pre-1980)); “no conclusion” (Species/Cell Type: Drosophila melanogaster, Assay Type: Aneuploidy, sex chromosome gain, chromosome aberrations, Assay Code: DAGT, Evaluation Type: Evaluation A (Pre-1980)); “inactive; negative” (Species/Cell Type: Drosophila melanogaster, Assay Type: Aneuploidy, whole sex chromosome loss, chromosome aberrations, Assay Code: DAC-M, Evaluation Type: Evaluation A (Pre-1980)); “no conclusion” under setting [3]; “active; positive” (Species/Cell Type: Escherichia coli polA (W3119 vs P3478), Assay Type: Rec-assay, DNA effects (bacterial DNA repair), Assay Code: RE1+, Evaluation Type: Evaluation A (Pre-1980)). Besides, the mutagenic call is “active; positive” under setting [4]; “inactive; negative” (Species/Cell Type: Glycine max (soybean), Assay Type: Gene mutation, Assay Code: GLM-, Evaluation Type: Evaluation A (Pre-1980)); “inactive; negative” (Species/Cell Type: Human diploid fibroblasts, Assay Type: Unscheduled DNA synthesis (UDS) in vitro, DNA effects, Assay Code: UDH-, Evaluation Type: Evaluation A (Pre-1980)); “inactive; negative” (Species/Cell Type: Human lymphocytes or leukocytes, Assay Type: Chromosome aberrations in vitro, Assay Code: CY7-, Evaluation Type: Evaluation A (Pre-1980)); “inactive; negative” (Species/Cell Type: Mouse (BALB/c-3T3) cells, Assay Type: Cell transformation, Assay Code: CTB-, Evaluation Type: Evaluation A (Pre-1980)); “active; positive” under setting [5]. The mutagenic call is “active; positive” (Species/Cell Type: Nonhuman, Assay Type: Sister-chromatid exchange (SCE) in vitro, Assay Code: SC2+D, Dose Response: With dose response, Evaluation Type: Evaluation B (Post-1980)); “active; positive” (Species/Cell Type: Saccharomyces cerevisiae, Assay Type: Forward gene mutation, Assay Code: YEF+, Evaluation Type: Evaluation A (Pre-1980)); “active; positive” (Species/Cell Type: Saccharomyces cerevisiae, Assay Type: Mitotic recombination or gene conversion, Assay Code: YEH+, Evaluation Type: Evaluation A (Pre-1980)); “inactive; negative” (Species/Cell Type: Salmonella typhimurium (one or more of the five standard strains: TA98, TA100, TA1535, TA1537, and TA1538), Assay Type: Histidine reverse gene mutation, Ames assay, Assay Code: SAL-, Evaluation Type: Evaluation A (Pre-1980)); “active; positive” (Species/Cell Type: Schizosaccharomyces pombe, Assay Type: Forward gene mutation, Assay Code: YEY+, Evaluation Type: Evaluation A (Pre-1980)); “inactive; negative” (Species/Cell Type: Syrian hamster embryo (SHE) cells, Assay Type: Cell transformation, clonal assay, Assay Code: CTC-, Evaluation Type: Evaluation A (Pre-1980)). Also, where the note is “Species/Cell Type: Vicia faba, Assay Type: Chromosome aberrations, Assay Code: VIC+, Evaluation Type: Evaluation A (Pre-1980)”, the mutagenic call is “active; positive”. The call under setting [2] is reported as “no conclusion”.
Regarding `CC(Br)CBr` (stereo not given), under “Species/Cell Type: Drosophila melanogaster, Assay Type: Sex-linked recessive lethal gene mutation, Assay Code: SRL+, Evaluation Type: Evaluation A (Pre-1980)”, the mutagenic call is “active; positive”.
Consider `Cc1c2ccccc2c(CO)c2ccc3c(c12)C=C[C@@H](O)[C@@H]3O`, for which the call (Species/Cell Type: Nonhuman, Assay Code: CCG+L, Evaluation Type: Evaluation A (Pre-1980)) was “active; positive”.
Take `CCOS(=O)(=O)OCCOS(=O)(=O)OCC`: the mutagenic call (Species/Cell Type: Schizosaccharomyces pombe, Assay Type: Reverse gene mutation, Assay Code: YEZ+, Evaluation Type: Evaluation A (Pre-1980)) is “active; positive”.
